Columns and labels:
HeLa A431 cells = assay: Photostability: fluorescence intensity over time in stained HeLa A431 cells; format: cell-based; conditions: HeLa A431 cells stained with 1.0 μM dye; for change of fluorescence intensity over time: measured at 2-sec intervals for 3500 sec
Protocol: The fluorescence intensities of three areas A, B, and C of HeLa A431 cells stained with the compound of Formula 110 (1.0 μM) were measured at 2-sec intervals for 3500 sec.
The fluorescence intensities of four areas A, B, C, and D of HeLa A431 cells stained with the compound of Formula 98 (1.0 μM) were measured at 2-sec intervals for 3500 sec.
The fluorescence intensities of two areas A and B of HeLa A431 cells stained with Cy3B (1.0 μM) were measured at intervals of 2 s for 2000 s.

[1] = Absorption spectra, emission spectra, molar extinction coefficients and quantum yields of the dye compounds; format: physicochemical
[2] = test system: mitochondria, Raw 264.7 cells; assay: Selectivity for mitochondria: co-localization with MitoTracker Green FM in Raw 264.7 cells; format: cell-based; conditions: dye 1 μM
Protocol: The specific selectivity of the compound of Formula 110 for mitochondria was investigated. To this end, Raw 264.7 cells were co-localized with the compound of Formula 110 and a commercially available mitochondrial marker (MTG, 1 μM MitoTracker Green FM for mitochondria).
OPM images were acquired at 560-600 nm (Formula 110, λex=552 nm) and 470-520 nm (MTG, λex=488 nm) and are shown in FIGS. 4a and 4b, respectively. FIG. 4c is a merged image of FIGS. 4a and 4b. The Pearson's co-localization coefficient (A) was calculated using the LAS AF software. [MTG]=1μM for 30 min incubation,λex=488 nm [Formula 110]=1μM for 30 min incubation,λex=552 nm

[3] = test system: IgG from mouse serum (primary); assay: FLISA plate fluorescence (bioactivity) of dye-conjugated secondary antibody on coated primary IgG; format: binding; conditions: for Fluorescence: dye-conjugated goat anti-mouse IgG
Protocol: 1. IgG from mouse serum (primary) was dissolved to a concentration of 10 μg/ml in coating buffer.
2. 100 μl of the solution was divided into each well of a FLISA H/B black corning plate.
3. After top sealing, the plate was incubated in the dark at room temperature for 2 h.
4. Each well was washed three times with 300 μl of washing buffer.
5. 300 μl of blocking buffer was placed into each well. After top sealing, the plate was incubated in the dark at room temperature for 1 h.
6. After removal of the blocking buffer, the wells were washed three times with washing buffer.
7. 100 μl of a dye-conjugated secondary antibody (10 μg/ml) was placed into each well. After top sealing, the plate was incubated in the dark at room temperature for 1 h.
8. After removal of the solution, each well was washed three times with 200 μl of washing buffer.
9. 100 μl of PBS was placed into each sample-containing well.
10. Fluorescence was measured with a microplate reader.
The procedure of Experimental Example 4 was repeated except that the compound of Formula 3 was used.
The procedure of Experimental Example 4 was repeated except that the compound of Formula 50 was used.

[4] = Absorption spectra, emission spectra, molar extinction coefficients and quantum yields of the dye compounds; format: physicochemical; conditions: Table 1; solvent DMSO
Protocol: Absorption spectra (λabs), emission spectra (λem), molar extinction coefficients (ε), and quantum yields of the compounds of Formulae 1-7 were measured and the results are shown in Table 1.
Absorption spectra (λabs), emission spectra (λem), molar extinction coefficients, and quantum yields of the compounds of Formulae 44-53 were measured and the results are shown in Table 4.
The products of the two factors (molar extinction coefficient×fluorescence quantum yield) for the inventive dye compounds were much greater than that for the comparative compound.

goat anti-mouse IgG = assay: Absorption and fluorescence emission spectra of goat anti-mouse IgG labeled with the dye
Protocol: Goat anti-mouse IgG was labeled with Alexa Fluor® 568 (Thermo Fisher Scientific) and the compound of Formula 1 and their absorption spectra and fluorescence emission spectra were recorded.
FIG. 1a is an absorption spectrum of goat anti-mouse IgG labeled with the compound of Formula 1, FIG. 1b is an absorption spectrum of goat anti-mouse IgG labeled with Alexa Fluor® 568, FIG. 1c is a fluorescence emission spectrum of goat anti-mouse IgG labeled with the compound of Formula 1, and FIG. 1d is a fluorescence emission spectrum of goat anti-mouse IgG labeled with Alexa Fluor® 568.
Goat anti-mouse IgG was labeled with Alexa Fluor® 594 (Thermo Fisher Scientific) and the compound of Formula 3 and their absorption spectra and fluorescence emission spectra were recorded.
FIG. 2a is an absorption spectrum of goat anti-mouse IgG labeled with the compound of Formula 3, FIG. 2b is an absorption spectrum of goat anti-mouse IgG labeled with Alexa Fluor® 594, FIG. 2c is a fluorescence emission spectrum of goat anti-mouse IgG labeled with the compound of Formula 3, and FIG. 2d is a fluorescence emission spectrum of goat anti-mouse IgG labeled with Alexa Fluor® 594.

| photostability (HeLa A431 cells) | Quantum yield ([1]; Table 6, solvent DMSO) | ε (molar extinction coefficient) ([1]; Table 6, solvent DMSO) | λabs ([1]; Table 6, solvent DMSO) [nm] | λem ([1]; Table 6, solvent DMSO) [nm] | Quantum yield ([1]; Table 6, solvent EtOH) | ε (molar extinction coefficient) ([1]; Table 6, solvent EtOH) | λabs ([1]; Table 6, solvent EtOH) [nm] | λem ([1]; Table 6, solvent EtOH) [nm] | Quantum yield ([1]; Table 6, solvent PBS) | ε (molar extinction coefficient) ([1]; Table 6, solvent PBS) | λabs ([1]; Table 6, solvent PBS) [nm] | λem ([1]; Table 6, solvent PBS) [nm] | SMILES | change of fluorescence intensity over time (HeLa A431 cells) | other results |
| --- | --- | --- | --- | --- | --- | --- | --- | --- | --- | --- | --- | --- | --- | --- | --- |
| good photostability | 0.77 | 57,000 M^−1cm^−1 | 570 | 601 | 0.78 | 64,000 M^−1cm^−1 | 570 | 596 | 0.51 | 57,000 M^−1cm^−1 | 565 | 595 | CCN(CC)c1ccc2c(c1)OC1CC[N+]3=C(C1=C2)C(C)(C)c1ccccc13 (stereo not shown) [Formula 98] | no substantial decreases in fluorescence intensity for 1 h |  |
| good photostability | 0.86 | 37,000 M^−1cm^−1 | 561 | 597 | 0.80 | 50,000 M^−1cm^−1 | 558 | 584 | 0.78 | 37,000 M^−1cm^−1 | 550 | 579 | CNc1ccc2c(c1)OC1CC[N+]3=C(C1=C2)C(C)(C)c1ccccc13 (stereo not shown) [Formula 110] | no substantial decreases in fluorescence intensity for 1 h | staining selectivity for mitochondria [2]: mitochondria were predominantly stained; degree of overlapping (A), Pearson's co-localization coefficient with Mitotracker Green FM ([2]; MTG 1 μM, 30 min incubation, LAS AF software): 0.73 |
|  |  |  |  |  |  |  |  |  |  |  |  |  | CC1(CCCCCC(=O)O)C2=[N+](CCC3Oc4cc5c(cc4C=C23)C(CS(=O)(=O)O)CC(C)(C)N5CCCS(=O)(=O)O)c2ccc(S(=O)(=O)[O-])cc21 (stereo not shown) [Formula 3] |  | ε (molar extinction coefficient) ([1]; Table 1, solvent DMSO): 64,000 M^−1cm^−1; λem ([1]; Table 1, solvent DMSO): 624 nm; D/P ratio at which the dye-secondary antibody was conjugated to the primary antibody with the highest efficiency ([3]; dye-conjugated goat anti-mouse IgG on IgG from mouse serum): ~3.4; Fluorescence ([3]; D/P ratio 2.54): 64.89; Fluorescence ([3]; D/P ratio 3.47): 83.79; Fluorescence ([3]; D/P ratio 4.86): 78.61; Fluorescence ([3]; D/P ratio 5.18): 80.28; Fluorescence ([3]; D/P ratio 5.95): 68.06; bioactivity compared with the Alexa Fluor dye ([3]; dye-conjugated secondary antibody, plate fluorescence): better bioactivity than Alexa Fluor® 594; brightness values compared with the Alexa Fluor dye ([3]; when the D/P ratio was ≥5): much higher than those of Alexa Fluor® 594; Q.Y. (quantum yield) [4]: 0.87; λabs [4]: 595 nm; fluorescence emission intensity compared with the Alexa Fluor dye (goat anti-mouse IgG): higher than that of Alexa Fluor® 594 |
